Results as given in patent US20140106387A1, “METHOD FOR CONTROLLING NAD(P)/NAD(P)H RATIO BY OXIDOREDUCTASE” (MD BIOALPHA CO., LTD., priority 2006, published 2014).

What was measured:
[1] = spontaneous locomotor activity; assay type: in vivo, mouse; details: C57BL/6 DIO mice, 3 hours after administration, measured for 7 hours
Procedure: Pyrano-1,2-naphthoquinone was administered to C57BL/6 DIO mice, and 3 hours later spontaneous locomotor activity was measured using Versa MAX Activity Monitors & Analyzer (AccuSan Instruments, Columbus, Ohio, USA). […] In order to distinguish between spontaneous locomotor and stereotypic/grooming behavior, animal activity was measured by taking continuous interference of two different scanning lines caused by mice as an effective determination standard. The pyrano-1,2-naphthoquinone-administered group, the vehicle-administered group and the control group were respectively placed in each measuring apparatus, and activity and motion of animals were measured for 7 hours. For acclimation of the animals to the new environment, mice were placed in the apparatus 2 hours prior to measurement.

[2] = AMP/ATP, NAD+/NADH and NADP+/NADPH ratios in liver after intravenous administration; assay type: in vivo, mouse
Procedure: Acid extraction was used for analysis of an AOPN concentration in the cells and liver tissues. 400 μl of 6% HClO4 was added to the cells cultured in a 100 mm dish, whereas a two-fold volume of 6% HClO4 was added to the liver tissues which were then immediately homogenized. Each mixture was centrifuged at 14,000 g and 4° C. for 10 min, and the resulting supernatants were neutralized by addition of 1 M borate buffer (pH 11) containing 4 mM EDTA in an amount of 75%. Samples were aliquoted and stored at a temperature of −80° C.
Analysis of an RPN concentration in liver tissues was carried out using alkali extraction. An equal volume of ice-cold 0.5 M KOH was added to the liver tissues which were then immediately homogenized. Thereafter, a two-fold volume of ice-cold distilled water was added and mixed with the liver tissues for 2 min, and the mixture was centrifuged using an Amicon ultrafiltration membrane (MILLIPORE) at 14,000 g and 4° C. for 40 min. The thus-obtained filtrate was neutralized by addition of 1 M KH2PO4 (pH 6.5) in an amount of 10%. Samples were aliquoted and stored at a temperature of −70° C. Concentration determination was made within 72 hours.
A mobile phase was 100 mM ammonium acetate:MeOH (98:2, v/v), and preparations were filtered through a 0.22-μm Millipore filter. A flow rate was set to 0.8 mL/min and detection was made at 254 nm. Separation was carried out using a ZORBAX Bonus-RP C18 column (3.5 μm, 4.6×150 mm I.D., […]). The samples were maintained at 4° C. in a thermostatted autosampler until they were loaded onto the column.
In order to assay ATP, ADP, AMP, NAD and NADP levels, 450 μl of 5 mM ammonium acetate was added to 50 μl of a liver sample extracted with perchloric acid (HClO4) which was then diluted ten times. Diluted samples were vortexed and mixed for 1 min, and the mixture was filtered through a 0.2 μm nylon syringe filter (Whatman, Brentford, UK). Then, 5 μl of each aliquot was injected into a HPLC system. Each standard solution (50 μl) for these analytes was added to 50 μl of an extraction solution containing 2-chloroadenosine (internal standard) and 400 μl of 5 mM ammonium acetate, and mixed and filtered in the same manner as in the above samples. For analysis of NADH and NADPH, each 100 μl of liver samples extracted with a potassium hydroxide (KOH) solution was diluted twice with an equal amount of a 5 mM ammonium acetate (KOH solution for standards). HPLC system consists of an Agilent 1100 series vacuum degasser, a binary pump, an autosampler, a thermostatted column compartment, and a DAD detector (Agilent Technologies, Palo Alto, Calif.). Adenine and nucleotide analogues were separated by Waters XTena MS C18 2.1×150 mm, 3.5 μm column (Waters, Milford, Mass., USA) chromatography using a gradient method. A mobile phase for adenine and nucleotide analogues was 5 mM ammonium acetate (A) and methanol (B). NAD^+-related compounds were separated by linear gradient elution of initial 98% (A) to final 70% (B) at a time point of 8 min. The mobile phase was developed at 70% (B) for 7 min. Finally, the mobile phase was returned to 98% (A) at a point of 16 min, and reequilibrated to 98% (A) for 12 min. A flow rate was set to 0.2 mL/min throughout the entire period of time. An injection volume was 5 μl. Electrospray-ionization mass spectrometry (ESI-MS) was carried out in a positive ion mode using MDS Sciex API 4000 Triple Quadrupole Mass Spectrometer (Applied Biosystems, Ontario, Calif.).
5 mg/kg of pyrano-1,2-naphthoquinone was intravenously administered to a tail vein of DIO mice and changes in an NADH amount and an NAD^+/NADH ratio of liver tissues were examined for 6 hours.

HepG2 cells = experiment: intracellular NADH / NAD(P)H concentration in HepG2 cells; assay type: cell-based, human
Procedure: A water-soluble tetrazolium salt was used to monitor the amount of NAD(P)H through its reduction to a yellow colored formazan dye. The total amount of NAD(P)H within viable cells in the medium was determined periodically by a spectrophotometer. Cells were seeded in 96-well plates (2×10^4 cells/well) and were cultured in 100 μl of a medium containing fetal bovine serum (FBS) and antibiotics for 24 hours. Immediately after treatment of the cells with a candidate compound (e.g., pyrano-1,2-naphthoquinone) at indicated concentrations and a 1/10 volume of a CCK-8 solution (Dojindo Molecular Technology), absorbance measurements were carried out using a spectrophotometer. […] In addition, a medium blank was prepared with only medium and physiological saline. In order to monitor monochromatic fluorescence (350 nm), light was illuminated using a 75 W xenon arc lamp directed via a 10 Hz chopper wheel; specific fluorescence intensity was measured at a wavelength of 405±15 nm and 460±10 nm.

[3] = 5 mg/kg intravenous, liver of DIO mice

Q: Which results are given for `CC1(C)CCC2=C(O1)c1ccccc1C(=O)C2=O` [βL, 2,2-Dimethyl-3,4-dihydro-2H-benzo[h]chromene-5,6-dione]?
A: spontaneous locomotor activity [1]: significant difference in the motion and activity of animals; numerical value of NADP+ ([2]; 5 mg/kg intravenous, liver): no significant change; time point of maximum NAD+/NADPH ratio ([2]; 5 mg/kg intravenous, liver): 120 min; time point of highest AMP/ATP ratio [2, 3]: 30 min; time point of maximum NAD+ amount and NAD+/NADH ratio [2, 3]: 120 min; time point of maximum increase of AMP concentration [2, 3]: 30 min; time point of recovery of AMP concentration to a normal level [2, 3]: 120 min; time point of recovery of AMP/ATP ratio to the initial state [2, 3]: 360 min; changes in the AMP/ATP and NAD+/NADP ratios ([2]; DIO mice): significant changes; AMP/ATP and NAD+/NADH ratios in the liver compared to control group ([2]; intravenous (IV) injection): higher; decrease of NAD(P)H (HepG2 cells; HepG2 cells having NQO1 activity, NAD(P)H fluorescence): about 40%; intracellular NADH concentration (HepG2 cells; HepG2 having an NQO1 activity, treatment for 2 hours, real-time measurement): concentration-dependent decrease of NADH
